Data from the NIST ThermoML archive (doi:10.1016/j.jct.2006.08.008).
Numbers after ± are expanded uncertainties.

Tests used:
[1] = mn = molality of the nth substance listed, in mol/kg; conditions: 350 kPa, Liquid
[2] = molar heat capacity at constant pressure; mn = molality of the nth substance listed, in mol/kg; conditions: 350 kPa, Liquid

N[C@@H](CCC(=O)O)C(=O)O [L-glutamic acid] + O
Conditions	mass density, m1 = 0.00249 [kg/m3]	mass density, m1 = 0.005 [kg/m3]	mass density, m1 = 0.00999 [kg/m3]	mass density, m1 = 0.01497 [kg/m3]	mass density, m1 = 0.02005 [kg/m3]	molar heat capacity at constant pressure, m1 = 0.00249 [J/K/mol]	molar heat capacity at constant pressure, m1 = 0.005 [J/K/mol]	molar heat capacity at constant pressure, m1 = 0.00999 [J/K/mol]	molar heat capacity at constant pressure, m1 = 0.01497 [J/K/mol]	molar heat capacity at constant pressure, m1 = 0.02005 [J/K/mol]
[1], 278.15 K	1000.19 ± 0.17	1000.25 ± 0.17	1001.06 ± 0.17	1000.93 ± 0.17	1001.36 ± 0.17	–	–	–	–	–
[1], 283.15 K	999.98 ± 0.17	999.98 ± 0.17	1000.74 ± 0.17	1000.64 ± 0.17	1001.07 ± 0.17	–	–	–	–	–
[1], 288.15 K	999.38 ± 0.17	999.38 ± 0.17	1000.11 ± 0.17	1000.03 ± 0.17	1000.44 ± 0.17	–	–	–	–	–
[1], 298.15 K	997.3 ± 0.17	997.33 ± 0.17	998.03 ± 0.17	997.95 ± 0.17	998.34 ± 0.17	–	–	–	–	–
[1], 308.15 K	994.32 ± 0.18	994.31 ± 0.18	994.97 ± 0.18	994.92 ± 0.18	995.33 ± 0.18	–	–	–	–	–
[1], 318.15 K	990.49 ± 0.19	990.5 ± 0.19	991.14 ± 0.19	991.09 ± 0.19	991.48 ± 0.19	–	–	–	–	–
[1], 328.15 K	985.92 ± 0.2	985.99 ± 0.2	986.59 ± 0.2	986.57 ± 0.2	986.97 ± 0.2	–	–	–	–	–
[1], 338.15 K	980.82 ± 0.21	980.87 ± 0.21	981.45 ± 0.21	981.46 ± 0.21	981.84 ± 0.21	–	–	–	–	–
[1], 348.15 K	975.1 ± 0.22	975.18 ± 0.22	975.74 ± 0.22	975.74 ± 0.22	976.12 ± 0.22	–	–	–	–	–
[1], 358.15 K	968.87 ± 0.23	968.96 ± 0.23	969.5 ± 0.23	969.51 ± 0.23	969.88 ± 0.23	–	–	–	–	–
[1], 368.15 K	962.18 ± 0.25	962.24 ± 0.25	962.76 ± 0.25	962.76 ± 0.25	963.12 ± 0.25	–	–	–	–	–
[2], 278.15 K	–	–	–	–	–	75.67 ± 0.3	75.7 ± 0.3	75.73 ± 0.3	75.73 ± 0.3	75.74 ± 0.3
[2], 283.15 K	–	–	–	–	–	75.5 ± 0.3	75.53 ± 0.3	75.55 ± 0.3	75.56 ± 0.3	75.57 ± 0.3
[2], 288.15 K	–	–	–	–	–	75.39 ± 0.3	75.41 ± 0.3	75.44 ± 0.3	75.45 ± 0.3	75.46 ± 0.3
[2], 293.15 K	–	–	–	–	–	75.32 ± 0.3	75.34 ± 0.3	75.36 ± 0.3	75.38 ± 0.3	75.38 ± 0.3
[2], 298.15 K	–	–	–	–	–	75.27 ± 0.3	75.29 ± 0.3	75.31 ± 0.3	75.33 ± 0.3	75.33 ± 0.3
[2], 303.15 K	–	–	–	–	–	75.24 ± 0.3	75.27 ± 0.3	75.28 ± 0.3	75.3 ± 0.3	75.3 ± 0.3
[2], 308.15 K	–	–	–	–	–	75.23 ± 0.3	75.25 ± 0.3	75.27 ± 0.3	75.29 ± 0.3	75.29 ± 0.3
[2], 313.15 K	–	–	–	–	–	75.23 ± 0.3	75.25 ± 0.3	75.27 ± 0.3	75.28 ± 0.3	75.29 ± 0.3
[2], 318.15 K	–	–	–	–	–	75.24 ± 0.3	75.27 ± 0.3	75.28 ± 0.3	75.3 ± 0.3	75.31 ± 0.3
[2], 323.15 K	–	–	–	–	–	75.27 ± 0.3	75.29 ± 0.3	75.3 ± 0.3	75.32 ± 0.3	75.33 ± 0.3
[2], 328.15 K	–	–	–	–	–	75.3 ± 0.3	75.32 ± 0.3	75.34 ± 0.3	75.35 ± 0.3	75.36 ± 0.3
[2], 333.15 K	–	–	–	–	–	75.34 ± 0.3	75.36 ± 0.3	75.38 ± 0.3	75.39 ± 0.3	75.4 ± 0.3
[2], 338.15 K	–	–	–	–	–	75.39 ± 0.3	75.41 ± 0.3	75.43 ± 0.3	75.44 ± 0.3	75.45 ± 0.3
[2], 343.15 K	–	–	–	–	–	75.45 ± 0.3	75.47 ± 0.3	75.48 ± 0.3	75.5 ± 0.3	75.51 ± 0.3
[2], 348.15 K	–	–	–	–	–	75.51 ± 0.3	75.54 ± 0.3	75.55 ± 0.3	75.57 ± 0.3	75.58 ± 0.3
[2], 353.15 K	–	–	–	–	–	75.58 ± 0.3	75.61 ± 0.3	75.62 ± 0.3	75.64 ± 0.3	75.65 ± 0.3
[2], 358.15 K	–	–	–	–	–	75.66 ± 0.3	75.69 ± 0.3	75.7 ± 0.3	75.72 ± 0.3	75.73 ± 0.3
[2], 363.15 K	–	–	–	–	–	75.75 ± 0.3	75.78 ± 0.3	75.79 ± 0.3	75.81 ± 0.3	75.82 ± 0.3
[2], 368.15 K	–	–	–	–	–	75.85 ± 0.3	75.87 ± 0.3	75.88 ± 0.3	75.91 ± 0.3	75.91 ± 0.3
[2], 373.15 K	–	–	–	–	–	75.95 ± 0.3	75.98 ± 0.3	75.99 ± 0.3	76.01 ± 0.3	76.02 ± 0.3
[2], 378.15 K	–	–	–	–	–	76.06 ± 0.3	76.09 ± 0.3	76.1 ± 0.3	76.13 ± 0.3	76.13 ± 0.31
[2], 383.15 K	–	–	–	–	–	76.18 ± 0.3	76.21 ± 0.3	76.22 ± 0.3	76.25 ± 0.3	76.25 ± 0.31
[2], 388.15 K	–	–	–	–	–	76.32 ± 0.3	76.34 ± 0.3	76.35 ± 0.3	76.38 ± 0.3	76.38 ± 0.31
[2], 393.15 K	–	–	–	–	–	76.46 ± 0.31	76.48 ± 0.31	76.49 ± 0.31	76.53 ± 0.31	76.51 ± 0.31
